Where “and” joins values, the source holds several entries; their conditions need not be identical. Identical values can stand only once. ± gives the expanded uncertainty stated by the source.
Details: 400 kPa, Liquid, Concentric cylinders viscometry

CN(CCO)CCO [N-methyldiethanolamine] gave a viscosity (298.15 K) of 73.1 ± 0.58 mPa·s, a viscosity (303.15 K) of 55.89 ± 0.39 mPa·s and a viscosity (308.15 K) of 43.45 ± 0.35 mPa·s. The viscosity (313.15 K) was 34.15 ± 0.3 mPa·s, the viscosity (318.15 K) was 27.15 ± 0.27 mPa·s and the viscosity (323.15 K) was 21.82 ± 0.24 mPa·s. It also gave a viscosity (328.15 K) of 17.79 ± 0.23 mPa·s, a viscosity (333.15 K) of 14.63 ± 0.22 mPa·s and a viscosity (338.15 K) of 12.2 ± 0.21 mPa·s. For the same compound, the viscosity (343.15 K) was 10.21 ± 0.21 mPa·s, the viscosity (348.15 K) was 8.61 ± 0.21 mPa·s and 8.6 ± 0.21 mPa·s and the viscosity (353.15 K) was 7.31 ± 0.21 mPa·s. The viscosity (358.15 K) was 6.28 ± 0.2 mPa·s and 6.29 ± 0.2 mPa·s, the viscosity (363.15 K) was 5.43 ± 0.2 mPa·s and the viscosity (368.15 K) was 4.72 ± 0.2 mPa·s. For the same compound, the viscosity (373.15 K) was 4.12 ± 0.2 mPa·s.

Source: the NIST ThermoML archive (doi:10.1021/acs.jced.9b00021)
